From paper PMC11127046, “Three-component systems represent a common pathway for extracytoplasmic addition of pentofuranose sugars into bacterial glycans” (Proceedings of the National Academy of Sciences of the …, 2024)

Biological target: T1, ORF15 (polyprenyl phosphoribofuranose synthase, PPPRS) (Citrobacter youngae, UniProt A0A2Z4BV67)
T1 construct: gene ubiA; full-length two-domain integral membrane protein (N-terminal PRP/HAD, C-terminal UbiA-type PPPRS); plasmid-expressed, membranes used as enzyme
T1 sequence (A0A2Z4BV67 1-483): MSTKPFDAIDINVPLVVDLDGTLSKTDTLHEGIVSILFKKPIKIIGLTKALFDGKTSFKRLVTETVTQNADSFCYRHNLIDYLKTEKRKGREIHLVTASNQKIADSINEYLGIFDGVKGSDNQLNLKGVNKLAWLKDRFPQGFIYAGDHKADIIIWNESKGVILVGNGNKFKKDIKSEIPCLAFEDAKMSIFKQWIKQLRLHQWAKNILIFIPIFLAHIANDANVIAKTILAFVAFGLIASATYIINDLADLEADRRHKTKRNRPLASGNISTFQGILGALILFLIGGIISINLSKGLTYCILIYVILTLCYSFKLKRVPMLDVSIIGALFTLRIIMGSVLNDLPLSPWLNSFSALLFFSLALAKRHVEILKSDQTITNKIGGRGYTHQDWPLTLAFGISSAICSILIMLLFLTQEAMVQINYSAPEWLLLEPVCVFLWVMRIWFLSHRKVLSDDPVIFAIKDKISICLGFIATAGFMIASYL
Assay: TLC, MS and NMR of product formed by membranes
Format: biochemical
Details: […] °C, […] h, expressed membranes

Structure (SMILES) | TLC, MS and NMR of product formed by membranes ([…] acceptor, […] PRPP, […] MgCl2, […] HEPES pH […]) | TLC, MS and NMR of product formed by membranes ([…] donor, […] farnesylP acceptor, […] MgCl2, pH […])
CC(C)=CCC/C(C)=C/CC/C(C)=C/COP(=O)(O)O [compound 1, farnesyl-phosphate] | revealing production of a slower migrating species that was dependent on the presence of PRPP | –
O=P(O)(O)OC[C@H]1O[C@H](OP(=O)(O)OP(=O)(O)O)[C@H](O)[C@@H]1O [phosphoribosylpyrophosphate] | – | membranes, PRPP donor, and farnesylP acceptor were analyzed by thin layer chromatography (TLC)
